From PMC11729425 (ACS Pharmacology & Translational Science, 2024)

Tested on: sphingolipids in gastrocnemius muscle and brain
Test: Sphingolipid and deoxysphingolipid analysis in gastrocnemius muscle and brain of aged mice (20 weeks)
Assay type: in vivo, C57BL/6JRj mice
Conditions: 1 mg/kg in the food
Description: Figure 4 1-deoxy-SL species accumulate in muscle and brain tissues during aging and contribute to cellular protein aggregation. (A,B) Heat map representing the abundance of sphingolipids in (A) gastrocnemius muscle and (B) brain with and without treatment with ALT-007 in mice (ALT-007 at 1 mg/kg; DMSO at equivalent volume for 20 weeks). N = 8 per group. Data are shown as log2 fold change. Adjusted P values are indicated as follows: *adjusted P < 0.05; **adjusted P < 0.01; ***adjusted P < 0.001. (C,D) Representative images and quantification of protein aggregates upon 1-deoxy-SA (C) and P053 treatment (D) in human primary IBM cells; both were administered at 4 μM for 24 h. N = 8 per group. (E) Analysis of 1-Deoxy-Spa and 1-DeoxyCer 24:1 levels in myoblasts from healthy and IBM patients. N = 3 per group. (C–E) Quantitative data are expressed as median with IQR and compared using the Mann–Whitney U test. All tests were 2 sided. *P < 0.05, **P < 0.01, ***P < 0.001.
Sphingolipid and deoxysphingolipid measurements were performed by liquid chromatography–tandem mass spectrometry (LC–MS/MS) analysis as described in previous studies.[12],[13],[28]−[30] […]
ESI source conditions were used as follows: dry gas temperature, 230 °C; nebulizer, 35 psi and flow rate of 14 L min^–1; sheath gas temperature, 400 °C and flow rate of 12 L min^–1; nozzle voltage, 500 V; and capillary voltage, 4000 V. Dynamic multiple reaction monitoring was used as the acquisition mode with a total cycle time of 500 ms. […] Raw LC–MS/MS data were processed applying Agilent Quantitative Analysis software (version B.07.00, MassHunter Agilent Technologies).
Absolute quantification was based on calibration curves and stable isotope-labeled internal standards to determine the response factor for each metabolite, with linearity assessed using 12-point range standard curves. […] Sphingolipid concentrations were reported and protein concentrations in protein pellets (measured by BCA, Thermo Fisher Scientific) were determined after metabolite extraction. […]

COc1cc(C(=O)N2CC[C@H](NC(=O)c3ccccc3OC(F)(F)F)c3c2cnn3C(C)C)cnc1OC [ALT-007] was tested, and the “1-deoxy-SLs in the brain” value was “attenuated the age-related increase in 1-deoxy-SLs”, the “total ceramides in the gastrocnemius” value was “lower levels of total ceramides” and the “very long chain 1-deoxy-SLs (1-deoxyCer 22, 1-deoxyCer 24:1, N-C24:1-deoxysphinganine) in the gastrocnemius muscle” value was “attenuated”.
